Test [1] concerns the target T1, CD73 enzymatic activity expressed on the cell surface of MDA-MB-231 cells (Homo sapiens, UniProt P21589).
T1 construct: Human breast cancer cells MDA-MB-231 that endogenously express CD73 were used; host or cells: MDA-MB-231
T1 sequence (P21589 27-549): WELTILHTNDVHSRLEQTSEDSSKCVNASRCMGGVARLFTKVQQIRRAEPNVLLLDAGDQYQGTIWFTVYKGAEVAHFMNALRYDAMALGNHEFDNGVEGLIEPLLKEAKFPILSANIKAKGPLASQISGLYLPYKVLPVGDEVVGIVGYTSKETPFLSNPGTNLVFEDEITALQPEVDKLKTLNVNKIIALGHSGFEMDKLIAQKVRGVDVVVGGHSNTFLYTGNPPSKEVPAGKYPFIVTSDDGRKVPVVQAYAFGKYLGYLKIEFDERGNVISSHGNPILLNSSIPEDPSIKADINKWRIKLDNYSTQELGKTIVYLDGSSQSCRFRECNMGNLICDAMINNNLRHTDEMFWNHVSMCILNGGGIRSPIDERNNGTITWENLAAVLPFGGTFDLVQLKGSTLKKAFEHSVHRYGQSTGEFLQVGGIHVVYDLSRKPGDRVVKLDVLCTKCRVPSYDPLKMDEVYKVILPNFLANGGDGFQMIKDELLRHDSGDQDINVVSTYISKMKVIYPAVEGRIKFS
The test is described as follows: Inhibition of CD73 enzymatic activity on the cell surface (Cell Titer Glo (CTG) experiment), MDA-MB-231 cells. The class given is cell-based. Conditions: MDA-MB-231 cells endogenously expressing CD73, AMP, 37° C. for 2 hours, CTG readout; read-out: Cellular activity IC50. As for the experimental part: Human breast cancer cells MDA-MB-231 that endogenously express CD73 were used in the present invention to evaluate the inhibition of the compound against the CD73 enzymatic activity expressed on the cell surface. The cells used were from the Cell Bank of the Chinese Academy of Sciences. The specific experimental procedures were as follows:
1. Before the test, MDA-MB231 cells were seeded to a 96-well plate at 20000 cells/well;
2. In RPMI1640, 10% fetal bovine serum (Gibco, 10099-141), placed in a 5% CO2 incubator at 37° C. overnight (the cells were washed three times by using a serum-free RPMI medium right before the test):
3. 50 μl of serum-free media containing the compounds at different concentrations were added to the cells and incubated for 15 minutes;
4. 25 μL of 1.2 mM AMP was added for incubation at 37° C. for 2 hours, 25 μL of supernatant was then collected from the cells and mix with 25 μL of 100 μM ATP, and then the concentration of AMP in the samples was determined by CTG (Promega, #G7573);
5. Then, a reduction ratio of the substrate AMP level in the cell culture supernatant collected after the reaction was quantitatively determined to evaluate the inhibitory effects of the examples of the present invention and the positive compounds against the CD73 enzymatic activity on the cell surface;
6. Finally, the concentration of the compound leading to half maximal inhibition of enzymatic activity (IC50) was determined using a four-parameter non-linear logistic model curve fit in Graphpad Prism.

A further test has as its target T2, CD73 (Homo sapiens, UniProt P21589).
T2 construct: purchased R&D systems 5795-EN-010
T2 sequence (P21589 27-547 limits assumed): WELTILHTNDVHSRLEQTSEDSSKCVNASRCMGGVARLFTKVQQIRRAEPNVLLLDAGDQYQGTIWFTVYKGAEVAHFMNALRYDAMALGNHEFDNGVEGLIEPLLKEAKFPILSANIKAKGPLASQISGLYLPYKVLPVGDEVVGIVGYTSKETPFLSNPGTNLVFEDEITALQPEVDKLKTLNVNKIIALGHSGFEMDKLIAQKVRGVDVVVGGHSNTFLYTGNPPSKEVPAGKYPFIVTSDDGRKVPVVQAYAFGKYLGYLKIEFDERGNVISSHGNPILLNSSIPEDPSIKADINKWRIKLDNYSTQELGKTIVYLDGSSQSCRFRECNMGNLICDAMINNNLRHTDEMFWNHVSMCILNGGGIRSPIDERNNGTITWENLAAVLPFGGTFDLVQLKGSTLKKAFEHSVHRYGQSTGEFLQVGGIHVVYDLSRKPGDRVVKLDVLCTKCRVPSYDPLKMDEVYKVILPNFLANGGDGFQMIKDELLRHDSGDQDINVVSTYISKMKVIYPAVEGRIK
The test is described as follows: In vitro enzymatic activity against CD73 (malachite green test using soluble CD73). The test is classed as biochemical. Conditions: soluble CD73 36 ng/mL, 50 μM AMP, 30 minutes at 25° C. The procedure: The malachite green test using soluble CD73, which is synthesized in vitro was used in the present invention to determine the characteristics of inhibitory activity of the compounds against CD73. The specific experimental procedures were as following:
1. The enzyme reaction in this experiment was carried out in 384-well plates, and CD73 (R&D systems #5795-EN-010) at a concentration of 36 ng/mL, the compounds at different concentrations and 50 μM AMP were incubated for 30 minutes at 25° C. in a 40 uL reaction system (consisting of 25 mM Tris pH 7.5, 5 mM MgCl2, and 0.005% Tween-20);
2. Then, 10 μL of malachite green solution (Sigma) was added to each well to terminate the reaction;
3. The concentration of resulting inorganic phosphate was determined according to the instructions of the reagent manufacturer;
4. The enzymatic activity of CD73 was calculated based on the concentration of the product, and then IC50 values were determined by non-linear regression analysis of the inhibition percentage of the compounds of the present invention at different concentrations.

The text below walks through data of patent US12157755B2, “CD73 inhibitor, preparation method therefor and application thereof” (Abbisko Therapeutics Co., Ltd., priority 2019, dated 2024).

Structures are written as SMILES.

The term IC50 denotes the concentration at which inhibition is half-maximal.

`O=P(O)(O)CP(=O)(O)OC[C@H]1C[C@@H](c2ccc3c(N[C@H]4CCc5ccc(F)cc54)nc(Cl)nn23)[C@H](O)[C@@H]1O` [Example 29, (((((1R,2R,3S,4S)-4-(2-chloro-4-(((S)-6-fluoro-2,3-dihydro-1H-inden-1-yl)amino)pyrrolo[2,1-f][1,2,4]triazin-7-yl)-2,3-dihydroxycyclopentyl)methoxy)(hydroxy)phosphoryl)methyl)phosphonic acid]: the IC50 in test [1] worked out at 0.71 nM; at CD73, 15 nM.
For `C[C@H](Nc1nc(Cl)nc2c1cnn2[C@@H]1O[C@H](COP(=O)(O)CP(=O)(O)O)[C@@H](O)[C@H]1O)c1ccc(S(F)(F)(F)(F)F)cc1` [Example 2, (((((2R,3S,4R,5R)-5-(6-chloro-4-(((S)-1-(4-(pentafluoro-λ^6-sulfanyl)phenyl)ethyl)amino)-1H-pyrazolo[3,4-d]pyrimidin-1-yl)-3,4-dihydroxytetra-hydrofuran-2-yl)methoxy)(hydroxy)phosphoryl)methyl)phosphonic acid], in that order: 0.73 nM and 20.6 nM.
For `C[C@@H](Nc1cc(Cl)nc2c1cnn2[C@@H]1O[C@H](COP(=O)(O)CP(=O)(O)O)[C@@H](O)[C@H]1O)c1ccc(S(F)(F)(F)(F)F)cc1` [Example 7, (((((2R,3S,4R,5R)-5-(6-chloro-4-(((R)-1-(4-(pentafluoro-λ^6-sulfanyl)phenyl)ethyl)amino)-1H-pyrazolo[3,4-b]pyridin-1-yl)-3,4-dihydroxytetrahydrofuran-2-yl)methoxy)(hydroxy)phosphoryl)methyl) phosphonic acid], in that order: 1.61 nM and 15.1 nM.
In the case of `CN(c1cc(Cl)nc2c1cnn2[C@@H]1O[C@H](COP(=O)(O)CP(=O)(O)O)[C@@H](O)[C@H]1O)[C@@H]1CCc2ccccc21` [Example 15, (((((2R,3S,4R,5R)-5-(6-chloro-4-(((R)-2,3-dihydro-1H-inden-1-yl)(methyl)amino)-1H-pyrazolo[3,4-b]pyridin-1-yl)-3,4-dihydroxytetrahydrofuran-2-yl)methoxy)(hydroxy)phosphoryl)methyl)phosphonic acid], the IC50 in test [1] came out at 0.121 nM; at CD73, 0.97 nM.
On the same counts, the results for `O=P(O)(O)CP(=O)(O)OC[C@H]1O[C@@H](n2ncc3c(NCc4ccccc4S(F)(F)(F)(F)F)cc(Cl)nc32)[C@H](O)[C@@H]1O` [Example 10, (((((2R,3S,4R,5R)-5-(6-chloro-4-((2-(pentafluoro-λ^6-sulfanyl)phenylmethyl)amino)-1H-pyrazolo[3,4-b]pyridin-1-yl)-3,4-dihydroxytetrahydrofuran-2-yl)methoxy)(hydroxy)phosphoryl)methyl) phosphonic acid] are 0.21 nM and 3.1 nM.
On the same counts, the results for `O=P(O)(O)CP(=O)(O)OC[C@H]1C[C@@H](c2ccc3c(N[C@@H]4CCc5cc(C(F)(F)F)ccc54)nc(Cl)nn23)[C@H](O)[C@@H]1O` [Example 39, (((((1R,2R,3S,4S)-4-(2-chloro-4-(((R)-5-(trifluoromethyl)-2,3-dihydro-1H-inden-1-yl)amino)pyrrolo[2,1-f][1,2,4]triazin-7-yl)-2,3-dihydroxycyclopentyl)methoxy)(hydroxy)phosphoryl)methyl)phosphonic acid] are 0.743 nM and 63 nM.
On the same counts, the results for `Cc1cc(N[C@@H]2CCc3cc(F)cc(F)c32)c2cnn([C@@H]3O[C@H](COP(=O)(O)CP(=O)(O)O)[C@@H](O)[C@H]3O)c2n1` [Example 23, (((((2R,3S,4R,5R)-5-(4-(((R)-5,7-difluoro-2,3-dihydro-1H-inden-1-yl)amino)-6-methyl-1H-pyrazolo[3,4-b]pyridin-1-yl)-3,4-dihydroxytetrahydrofuran-2-yl)methoxy)(hydroxy)phosphoryl)methyl)phosphonic acid] are 0.245 nM and 0.89 nM.
Turning to `O=P(O)(O)CP(=O)(O)OC[C@H]1O[C@@H](n2ncc3c(N[C@@H]4CCc5cc(Cl)ccc54)cc(Cl)nc32)[C@H](O)[C@@H]1O` [Example 18, (((((2R,3S,4R,5R)-5-(6-chloro-4-(((R)-5-chloro-2,3-dihydro-1H-inden-1-yl)amino)-1H-pyrazolo[3,4-b]pyridin-1-yl)-3,4-dihydroxytetrahydrofuran-2-yl)methoxy)(hydroxy)phosphoryl)methyl)phosphonic acid], the IC50 was 0.24 nM in test [1] and 1.67 nM against CD73.
On the same counts, the results for `C[C@H](Nc1cc(Cl)nc2c1cnn2[C@@H]1O[C@H](COP(=O)(O)CP(=O)(O)O)[C@@H](O)[C@H]1O)c1ccc(S(F)(F)(F)(F)F)cc1F` [Example 5, (((((2R,3S,4R,5R)-5-(6-chloro-4-(((S)-1-(2-fluoro-4-(pentafluoro-λ^6-sulfanyl)phenyl)ethyl)amino)-1H-pyrazolo[3,4-b]pyridin-1-yl)-3,4-dihydroxytetrahydrofuran-2-yl)methoxy)(hydroxy)phosphoryl)methyl)phosphonic acid] are 0.49 nM and 36.5 nM.
On the same counts, the results for `O=P(O)(O)CP(=O)(O)OC[C@H]1O[C@@H](n2ncc3c(N[C@@H]4CCc5cc(F)cc(F)c54)cc(Cl)nc32)[C@H](O)[C@@H]1O` [Example 21, (((((2R,3S,4R,5R)-5-(6-chloro-4-(((R)-5,7-difluoro-2,3-dihydro-1H-inden-1-yl)amino)-1H-pyrazolo[3,4-b]pyridin-1-yl)-3,4-dihydroxytetrahydrofuran-2-yl)methoxy)(hydroxy)phosphoryl)methyl)phosphonic acid] are 0.21 nM and 0.21 nM.
For `O=P(O)(O)CP(=O)(O)OC[C@H]1C[C@@H](c2ccc3c(N[C@H]4CCc5cc(Cl)ccc54)nc(Cl)nn23)[C@H](O)[C@@H]1O` [Example 37, (((((1R,2R,3S,4S)-4-(2-chloro-4-(((S)-5-chloro-2,3-dihydro-1H-inden-1-yl)amino)pyrrolo[2,1-f][1,2,4]triazin-7-yl)-2,3-dihydroxycyclopentyl)methoxy)(hydroxy)phosphoryl)methyl)phosphonic acid], in that order: 60 nM and above 1000 nM.
`O=P(O)(O)CP(=O)(O)OC[C@H]1C[C@@H](c2ccc3c(N[C@H]4CCc5ccccc54)nc(Cl)nn23)[C@H](O)[C@@H]1O` [Example 26, (((((1R,2R,3S,4S)-4-(2-chloro-4-(((S)-2,3-dihydro-1H-inden-1-yl)amino)pyrrolo[2,1-f][1,2,4]triazin-7-yl)-2,3-dihydroxy-cyclopentyl)methoxy)(hydroxy)phosphoryl)methyl)phosphonic acid]: the IC50 in test [1] worked out at 3.18 nM.
